Laboratory results as given in patent publication US8912146B2, “Derivatives of APF and methods of use” (University of Maryland, Baltimore, priority 2008, dated 2014).
“Also recorded” adds a separate entry of the source. Where a SMILES comes first, the peptide text is derived from it. [ ]: non-standard residue; d: D form. The star is where a group is joined. ξ: configuration not given here. X1 = CC(=O)NC1C(O[C@@H]2OC(CO)[C@H](O)C(O)C2O)[C@@H](O)C(CO)O[C@@H]1*; Thr(3ξ) = CC(O)[C@H](N)C(=O)O; ξI = CCC(C)C(N)C(=O)O; ξV = CC(C)C(N)C(=O)O; ξA = CC(N)C(=O)O

What was measured:
[1] = tested on: Akt/GSK3/beta catenin signaling in T24 bladder carcinoma cells; experiment: Western blot / qRT-PCR of Akt/GSK3/beta catenin signaling in T24 cells; type: cell-based; conditions: 50 nM
Procedure: Gene expression was determined by quantitative RT-PCR, and specific protein expression or phosphorylation was determined by Western blot. p53 mRNA and protein expression served as positive controls for APF activity. Beta actin expression served as a standard control for Western blot analyses (see FIGS. 38-40).

[2] = tested on: primary normal human bladder epithelial cells; conditions: Keay et al., 2004; cited from earlier work
Hs839.T melanoma cells = experiment: 3H-thymidine incorporation in melanoma cells; type: cell-based; conditions: for inhibition of melanoma cell proliferation: compared to cell medium alone (p<0.00001)
Procedure: Ovarian carcinoma (Caov-3), prostate carcinoma (LNCaP), melanoma (Hs839.T), pancreatic carcinoma (PANC-1), bladder carcinoma (T24, RT4 and TCCSuP), kidney carcinoma (ACHN), cervical carcinoma (HeLa), lung carcinoma (A549), colon carcinoma (WiDr), and breast carcinoma (Bt-474) cells were all purchased from the American Type Culture Collection (ATCC). Caov-3, HS839.T, PANC-1, and BT-474 cells were grown in DMEM medium (with 4 mM L-glutamine—Gibco BRL) containing 10% heat-inactivated fetal calf serum, 4.5 g/L glucose, 1.5 g/L sodium bicarbonate and 1% antibiotic/antimycotic solution (all supplements from Sigma except sodium bicarbonate which is from Gibco BRL). LNCaP cells were grown in RPMI medium (with 2 mM L-glutamine—Gibco BRL) containing10% heat-incativated fetal calf serum, 10 mM HEPES buffer, 1 mM sodium pyruvate, 4.5 g/L glucose, 1.5 g/L sodium bicarbonate, and 1% antibiotic/antimycotic solution (all supplements from Sigma except sodium bicarbonate which is from Gibco BRL). T24 and RT4 cells were grown in McCoy's 5A medium (Gibco BRL) containing 10% heat-inactivated fetal calf serum, 1% L-glutamine, 2.2 g/L sodium bicarbonate, and 1% antibiotic/antimycotic solution (all supplements from Sigma except sodium bicarbonate which is from Gibco BRL). TCCSuP, HeLa, and WiDr cells were grown in MEM (Gibco BRL) containing 10% heat-inactivated fetal calf serum, 1% L-glutamine, 1 mM sodium pyruvate, and 1% antibiotic/antimycotic solution (all supplements from Sigma). ACHN cells were grown in the same medium as TCCSuP and HeLa cells with the exception that it also contained 1.5 g/L sodium bicarbonate (Gibco BRL). A549 cells were grown in F12 medium (Gibco BRL) containing 10% heat-inactivated fetal calf serum, 1% L-glutamine, and 1% antibiotic/antimycotic solution (all supplements from Sigma).
Cancer (carcinoma or melanoma) cell proliferation was measured by ^3H-thymidine incorporation into each type of cancer cell, plating 3.0×10^3 cells/well (A549 cells) or 1.5×10^3 cells/well (all other cancer cells) onto a 96 well cell culture plate (VWR 29442-054), in 150 ul/well of the respective normal growth medium for each cell type (see above). All APF congeners were resuspended as described for normal bladder epithelial cells, except using the specific serum-free medium appropriate for each cell type, and the remainder of the assay was performed as described for normal bladder cells, above.
(§1) Significance of the difference in mean values between groups was determined by an analysis of variance.
(§2) Cell proliferation was measured by ^3H-thymidine incorporation into each cell type, plating cells in […] of their respective medium (see above) onto a 96-well cell culture plate (Corning, N.Y.) at a predetermined optimal cell density for APF inhibition of cell proliferation: Caov-3, PANC-1, T24, HeLa, and HS839.T cells were plated at a density of 1.5×10^3 cells/well; A549 cells were plated at a density of 3×10^3 cells/well. On the next day, cell growth medium was removed and replaced with serum-free medium appropriate for each cell type. […] Cells were then incubated at 37° C. in a 5% CO2 atmosphere for 48 hours, after which cell contents were harvested, methanol-fixed onto glass fiber filter paper, and the amount of radioactivity incorporated determined. […]

[3] = tested on: carcinoma cell lines (WiDr, HeLa, PANC-1, CaOv3, BT474, ACHN, T24, A549); experiment: 3H-thymidine incorporation in carcinoma cell lines; type: cell-based; conditions: 48 hrs; for inhibition of carcinoma cell line proliferation: compared to cell medium alone (p<0.00001)
Procedure: Ovarian carcinoma (Caov-3), prostate carcinoma (LNCaP), melanoma (Hs839.T), pancreatic carcinoma (PANC-1), bladder carcinoma (T24, RT4 and TCCSuP), kidney carcinoma (ACHN), cervical carcinoma (HeLa), lung carcinoma (A549), colon carcinoma (WiDr), and breast carcinoma (Bt-474) cells were all purchased from the American Type Culture Collection (ATCC). Caov-3, HS839.T, PANC-1, and BT-474 cells were grown in DMEM medium (with 4 mM L-glutamine—Gibco BRL) containing 10% heat-inactivated fetal calf serum, 4.5 g/L glucose, 1.5 g/L sodium bicarbonate and 1% antibiotic/antimycotic solution (all supplements from Sigma except sodium bicarbonate which is from Gibco BRL). LNCaP cells were grown in RPMI medium (with 2 mM L-glutamine—Gibco BRL) containing10% heat-incativated fetal calf serum, 10 mM HEPES buffer, 1 mM sodium pyruvate, 4.5 g/L glucose, 1.5 g/L sodium bicarbonate, and 1% antibiotic/antimycotic solution (all supplements from Sigma except sodium bicarbonate which is from Gibco BRL). […]
Cancer (carcinoma or melanoma) cell proliferation was measured by ^3H-thymidine incorporation into each type of cancer cell, plating 3.0×10^3 cells/well (A549 cells) or 1.5×10^3 cells/well (all other cancer cells) onto a 96 well cell culture plate (VWR 29442-054), in 150 ul/well of the respective normal growth medium for each cell type (see above). […]
as §1
as §2, with “cells/well.” for “cells/well. On the next day, cell growth medium was removed and replaced with serum-free medium appropriate for each cell type.”

[4] = tested on: primary normal human bladder epithelial cells; experiment: 3H-thymidine incorporation (antiproliferative activity) in primary normal bladder epithelial cells; type: cell-based; conditions: for % of activity: relative to 1 (as-APF) run on the same plate, from IC50, inactive = no significant activity at <25 μM
Procedure: Cell Culture. Cystoscopy was performed under general anesthesia, and 4-mm^2 pieces of transitional epithelium with submucosal bladder tissue were obtained for the growth of primary bladder epithelial cells, as previously described (Keay et al., 1996; 2004). Primary normal bladder epithelial cells were propagated in DMEM-F12 (Media-Tech, Herndon Va.) with 10% heat-inactivated fetal bovine serum (FBS), 1% antibiotic/antimycotic solution, 1% L-glutamine, 0.25 units/mL insulin (all from Sigma, St. Louis, Mo.), and 5 ng/mL hEGF (R&D Systems, Minneapolis, Minn.) at 37° C. in a 5% CO2 atmosphere and characterized by binding of AE-1/AE-3 pancytokeratin antibodies (Signet, Dedham, Mass.).
^3H-Thymidine Incorporation. Cell proliferation was measured by ^3H-thymidine incorporation into explanted normal human bladder epithelial cells, plating 1.5×10^4 cells/well onto a 96 well cell culture plate (VWR 29442-054), in 150 ul/well MEM containing 10% heat inactivated FBS, 1% antibiotic/antimycotic solution, and 1% L-glutamine (all from Sigma), resulting in a doubling time of 48-72 hours, as previously described (Keay et al., 1996; 2004). Each purified lyophilized synthetic APF congener was resuspended in acetonitrile/distilled water (1:1), and applied to the cells in serum-free MEM (containing only L-glutamine and antibiotics/antimycotics); cell controls received acetonitrile/distilled water diluted in serum-free MEM alone. Cells were then incubated at 37° C. in a 5% CO2 atmosphere for 48 hours. The cell contents harvested and methanol-fixed onto glass fiber filter paper, and the amount of radioactivity incorporated determined. Significant inhibition of ^3H-thymidine incorporation was defined as a mean decrease in counts per minute of greater than 2 standard deviations from the mean of control cells for each plate. Inhibition of cell proliferation was determined from a semi-log plot of dose-response for each APF derivative; IC50 was determined as the concentration of each derivative that caused a mean 50% inhibition of thymidine incorporation as compared to the mean of untreated cell controls.
Statistical Analysis. The thymidine incorporation (APF biological activity) assay was performed in triplicate on at least two separate runs, with 1 run simultaneously in triplicate on the same plate. The significance of the difference between mean values for each congener vs. mean values for compound 1 was determined by an analysis of variance.

[5] = nonelectroporated T24 control cells, p<0.05

| Compound | activity in biological antiproliferation assays, previously determined [2] | antiproliferative activity compared with as-APF (1), in words [4] | % of activity [4] | other results |
| --- | --- | --- | --- | --- |
| CC(=O)NC1C(O[C@@H]2OC(CO)[C@H](O)C(O)C2O)[C@@H](O)C(CO)O[C@@H]1OC(C)[C@H](N)C(=O)NC(C(=O)N1CCC[C@H]1C(=O)NC(C)C(=O)N[C@@H](C)C(=O)NC(C(=O)N[C@H](C(=O)NC(C(=O)N[C@@H](C)C(=O)O)C(C)C)C(C)C)C(C)C)C(C)C (some centres unmarked) [Derivative 1, Galβ1-3GalNAcα-O-TVPAAVVVA] | essentially equipotent | – | – | mRNA and protein expression of total Akt, GSK3beta, beta catenin ([1]; T24 cells, p>0.05): neither mRNA nor protein expression of total Akt, GSK3beta, or beta catenin changed significantly; Akt phosphorylation (serine 473 and threonine 308) [1, 5]: significantly decreased; GSK3beta phosphorylation (tyrosine 216) [1, 5]: significantly decreased; beta catenin phosphorylation (serine 33/37 and threonine 41) [1, 5]: significantly increased; beta catenin phosphorylation (serine 45) [1, 5]: significantly decreased; inhibition of melanoma cell proliferation (Hs839.T melanoma cells; 48 hrs): significantly inhibited proliferation; IC50 in melanoma cells (Hs839.T melanoma cells; 48 hrs, listed as as-APF): low to mid nanomolar range; inhibitor concentration at which significant inhibition occurred, melanoma cells vs carcinoma cells (Hs839.T melanoma cells; listed as as-APF): 1-2 orders of magnitude higher; inhibitor concentration at which significant inhibition occurred, melanoma cells vs carcinoma cells (Hs839.T melanoma cells; listed as asialo-APF): 2 orders of magnitude higher; inhibition of carcinoma cell line proliferation [3]: significantly inhibited proliferation; IC50 in carcinoma cell lines ([3]; listed as as-APF): low to mid nanomolar range |
| CC(=O)NC1C(O[C@@H]2OC(CO)[C@H](O)C(O)C2O)[C@@H](O)C(CO)O[C@@H]1OC(C)[C@H](N)C(=O)NC(C(=O)N1CCC[C@H]1C(=O)NC(C)C(=O)NCC(=O)NC(C(=O)N[C@H](C(=O)NC(C(=O)NCC(=O)O)C(C)C)C(C)C)C(C)C)C(C)C (some centres unmarked) [Derivative 24] (H-[Thr(3ξ)](X1)[ξV]P[ξA]G[ξV]V[ξV]G-OH) | – | complete inactivation | inactive | – |
| CC(=O)NC1C(O[C@@H]2OC(CO)[C@H](O)C(O)C2O)[C@@H](O)C(CO)O[C@@H]1OC(C)[C@H](N)C(=O)NC(C(=O)N1CCC[C@H]1C(=O)NC(C)C(=O)N[C@@H](C)C(=O)NC(C)C(=O)N[C@@H](C)C(=O)NC(C)C(=O)N[C@@H](C)C(=O)O)C(C)C (some centres unmarked) [Derivative 25] (H-[Thr(3ξ)](X1)[ξV]P[ξA]A[ξA]A[ξA]A-OH) | – | decreased antiproliferative activity | 1% | – |
| CC(=O)NC1C(O[C@@H]2OC(CO)[C@H](O)C(O)C2O)[C@@H](O)C(CO)O[C@@H]1OC(C)[C@H](N)C(=O)NC(C(=O)N1CCC[C@H]1C(=O)NC(C)C(=O)N[C@@H](C)C(=O)NCC(=O)NCC(=O)NCC(=O)N[C@@H](C)C(=O)O)C(C)C (some centres unmarked) [Derivative 26] (H-[Thr(3ξ)](X1)[ξV]P[ξA]AGGGA-OH) | – | complete inactivation of antiproliferative activity | 0.01% | – |
| CC(=O)NC1C(O[C@@H]2OC(CO)[C@H](O)C(O)C2O)[C@@H](O)C(CO)O[C@@H]1OC(C)[C@H](N)C(=O)NC(C(=O)N1CCC[C@H]1C(=O)NC(C)C(=O)N[C@@H](C)C(=O)NC(C(=O)NC(C(=O)NC(C(=O)N[C@@H](C)C(=O)O)C(C)C)C(C)C)C(C)C)C(C)C (some centres unmarked) [Derivative 27] | – | complete inactivation of antiproliferative activity | inactive | – |
| CCC(C)C(NC(=O)[C@H](C)NC(=O)C(C)NC(=O)[C@@H]1CCCN1C(=O)C(NC(=O)[C@@H](N)C(C)O[C@H]1OC(CO)[C@H](O)C(O[C@@H]2OC(CO)[C@H](O)C(O)C2O)C1NC(C)=O)C(C)C)C(=O)N[C@H](C(=O)NC(C(=O)N[C@@H](C)C(=O)O)C(C)CC)C(C)C (some centres unmarked) [Derivative 28] (H-[Thr(3ξ)](X1)[ξV]P[ξA]A[ξI]V[ξI]A-OH) | – | complete inactivation of antiproliferative activity | inactive | – |
| CC(=O)NC1C(O[C@@H]2OC(CO)[C@H](O)C(O)C2O)[C@@H](O)C(CO)O[C@@H]1OC(C)[C@H](N)C(=O)NC(C(=O)N1CCC[C@H]1C(=O)NC(C)C(=O)N[C@@H](C)C(=O)NC(C(=O)N[C@H](C(=O)NC(C(=O)N[C@@H](C)C(=O)O)C(C)C)C(C)C)C(C)C)C(C)C (some centres unmarked) [Derivative 36] | – | complete inactivity | inactive | – |
| Galβ1-3GalNAcβ-O-TVPAAVVVA | completely inactive | – | – | – |
| Galβ1-4GlcNAcα-O-SLPAAVVVA | essentially equipotent | – | – | – |
| Neu5Ac α 2-3Galβ1-4-GlcNAcα-O-TVPAAVVVA | essentially equipotent | – | – | – |
| Neu5Acα2-3Galβ1-3GalNAcα-O-TVPAAVVVA | essentially equipotent | – | – | – |
| Neu5Acα2-3Galβ1-4GlcNAcα-O-SLPAAVVVA | essentially equipotent | – | – | – |
| TVPAAVVVA [nonglycosylated nonapeptide, reference compound] | completely inactive | – | – | inhibition of melanoma cell proliferation (Hs839.T melanoma cells; 48 hrs, listed as negative control peptide): no effect; also recorded: none of these cell lines was inhibited; inhibition of carcinoma cell line proliferation ([3]; listed as negative control peptide): no effect; also recorded: none of these cell lines was inhibited |
